In one series the test system is Neuro2A-G cells. The series is described as follows: Uptake of SNALP containing Cy3-labeled siRNA, fluorescence microscopy. Format: cell-based. The settings on record: 0.5 μg/mL siRNA, 4 hours. Here is the method: Uptake of SNALP Containing Cy3-labeled siRNA: SNALP were formulated as previously described, but using siRNA labelled with the fluorophore Cy3 (Cy3-siRNA was a gift of Sirna Therapeutics Inc, Boulder, Colo.). The encapsulation, siRNA concentration, and particle size were determined as described.
For the uptake study, 8×10^4 Neuro2A-G cells were grown overnight on 4-well chamber slides (BD Falcon, Mississauga, ON) in MEM containing 0.25 mg/mL G418. DSDMA, DODMA, DLinDMA, and DLenDMA SNALP containing Cy3-siRNA, as well as naked Cy3-siRNA and unlabeled DSDMA SNALP were placed on the cells at 0.5 μg/mL siRNA. After a 4 hour incubation with the transfection media, the cells were washed with PBS, then with MEM containing G418 and finally with PBS once more. […] The cells were viewed using an Olympus BX60 Microscope modified for fluorescence capabilities. Cy3 fluorescence within the cells was visualized using a rhodamine cube set (Microgen Optics, Redding, Calif.) and the DAPI fluorescence was visualized using a DAPI cube set (Carsen Group, Markham, ON). […] Pictures of the cells were taken at exposure times of ¼ sec when examining Cy3 fluorescence and 1/80 sec when examining DAPI fluorescence.
The uptake process was examined further with the use of fluorescently labelled SNALP. […] The Cy3 fluorescence (red) is most intense in cells treated with DSDMA containing SNALP. […]

The nature of series [1]: 31P-NMR of DPPS/cationic lipid MLV, bilayer-to-hexagonal phase transition temperature. Format: physicochemical. The settings on record: MLV of DPPS and cationic lipid 1:1 molar ratio, 10 mM sodium citrate pH 4. Here is the method:
^31P Nuclear Magnetic Resonance Spectroscopy: Multilamellar vesicles (MLV) were prepared comprising DPPS and cationic lipid at a molar ratio of 1:1. This was accomplished by drying the lipids from chloroform solution, transferring to 10 mm NMR tubes, and hydrating in 1.5 mL of 10 mM sodium citrate, pH 4. Free induction decays (FIDs) corresponding to 1000 scans were obtained with a 3.0 μs, 60o pulse with a 1 s interpulse delay and a spectral width of 25000 Hz. A gated two-level proton decoupling was used to ensure sufficient decoupling with minimum sample heating. An exponential multiplication corresponding to 50 Hz of line broadening was applied to the FIDs prior to Fourier transformation. The sample temperature (+/−1° C.) was regulated using a Bruker B-VT1000 variable temperature unit. Chemical shifts were referenced to 85% phosphoric acid as an external standard.
The significance of saturation with respect to phase transition temperature was investigated using ^31P-NMR. […] By determining the temperature at which the conversion occurs, the relative ease with which the lipids form the HII phase, their ‘fusogenicity’, can be determined.
MLV were prepared using the anionic lipid DPPS in a 1:1 molar ratio with each cationic lipid. The ^31P-NMR spectra of the MLV were measured at various temperatures. […]

With `CC/C=C\C/C=C\C/C=C\CCCCCCCCOCC(CN(C)C)OCCCCCCCC/C=C\C/C=C\C/C=C\CC` (stereo not drawn) [DLenDMA, 1,2-Dilinolenyloxy-N,N-dimethylaminopropane], the “cellular uptake of Cy3-labeled siRNA (Cy3 fluorescence)” value with Neuro2A-G cells is on record as “extremely faint”.
On to `CCCCCCCCCCCCCCCCCC[N+](C)(C)CCCCCCCCCCCCCCCCCC` [DSDMA, Distearyldimethylammonium], for which, in the series on Neuro2A-G cells, the “cellular uptake of Cy3-labeled siRNA (Cy3 fluorescence)” value is recorded as “most intense”. The “bilayer-to-hexagonal (HII) phase transition temperature (Tc)” value in series [1] was over 50 °C.

Source of the values: patent US7745651B2, “Cationic lipids and methods of use” (Protiva Biotherapeutics, Inc., priority 2004, dated 2010).
